{
  "source": "ChEMBL document CHEMBL5036379",
  "about": "“Identification of Slow-Binding Inhibitors of the BoNT/A Protease” (ACS Med Chem Lett, 2022)",
  "key": {"[1]": {"target": "Botulinum neurotoxin type A (Clostridium botulinum, UniProt P0DPI0)", "sequence (P0DPI0 2-448 limits assumed)": "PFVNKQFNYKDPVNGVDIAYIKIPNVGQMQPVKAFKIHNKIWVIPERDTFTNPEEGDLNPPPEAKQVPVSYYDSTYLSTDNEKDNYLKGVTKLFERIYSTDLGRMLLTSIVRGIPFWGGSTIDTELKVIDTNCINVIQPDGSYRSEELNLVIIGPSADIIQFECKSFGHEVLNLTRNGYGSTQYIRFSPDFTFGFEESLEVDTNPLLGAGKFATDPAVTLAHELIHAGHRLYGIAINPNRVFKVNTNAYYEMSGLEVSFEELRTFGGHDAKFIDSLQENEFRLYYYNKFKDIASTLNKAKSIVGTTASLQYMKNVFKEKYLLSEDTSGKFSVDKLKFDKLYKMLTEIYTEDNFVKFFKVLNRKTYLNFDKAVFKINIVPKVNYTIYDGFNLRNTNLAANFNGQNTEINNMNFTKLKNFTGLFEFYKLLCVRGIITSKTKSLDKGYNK", "experiment": "Inhibition of Clostridium botulinum BoNT/A light chain assessed as inhibition constant at 10 nM using SNAPtide flp6 as substrate measured after 30 mins by FRET assay"}, "[2]": {"target": "Botulinum neurotoxin type A (Clostridium botulinum) (UniProt P0DPI0)", "sequence (P0DPI0 2-448 limits assumed)": "as above", "experiment": "Inhibition of BoNT/A light chain at 1 to 32 uM using SNAPtide flp6 as substrate measured after 30 mins by FRET assay", "settings": "dose 1-32 µM, TDE = time-dependent effect"}, "[3]": {"experiment": "Half life of compound", "type": "physicochemical"}, "[4]": {"target": "Botulinum neurotoxin type A (Clostridium botulinum) (UniProt P0DPI0)", "experiment": "Inhibition of Clostridium botulinum BoNT/A light chain assessed as inhibition constant at 6 to 30 uM using SNAPtide flp6 as substrate measured after 30 mins by FRET assay", "settings": "dose 6-30 µM"}},
  "note": "Active and inactive are the calls of the source. The rule behind the calls is not given here.",
  "data": [
    {"smiles": "C=CCN(O)C(=O)/C=C/c1ccc(Cl)cc1Cl", "values": [
      {"measurement": "Ki", "setting": "[1]", "result": "> 16", "unit": "µM"}
    ]},
    {"smiles": "C=CCCCCN(O)C(=O)/C=C/c1ccc(Cl)cc1Cl", "values": [
      {"measurement": "Ki", "setting": "[1]", "result": 6.31, "unit": "µM"},
      {"measurement": "inhibition", "setting": "[2]", "result": "Tde"}
    ]},
    {"smiles": "C=CCCCCCN(O)C(=O)/C=C/c1ccc(Cl)cc1Cl", "values": [
      {"measurement": "Ki", "setting": "[1]", "result": 4.66, "unit": "µM"},
      {"measurement": "inhibition", "setting": "[2]", "result": "Tde"}
    ]},
    {"smiles": "CCCCCCCN(O)C(=O)/C=C/c1ccc(Cl)cc1Cl", "values": [
      {"measurement": "Ki", "setting": "[1]", "result": 2.47, "unit": "µM"}
    ]},
    {"smiles": "O=C(/C=C/c1ccc(Cl)cc1Cl)N(O)CCCCCC1CC1", "values": [
      {"measurement": "half-life", "setting": "[3]", "result": 33, "unit": "min"},
      {"measurement": "inhibition", "setting": "[4]", "result": "Active"}
    ]},
    {"smiles": "C=CCCCN(O)C(=O)/C=C/c1ccc(Cl)cc1Cl", "values": [
      {"measurement": "Ki", "setting": "[1]", "result": "> 8", "unit": "µM"},
      {"measurement": "inhibition", "setting": "[2]", "result": "Tde"}
    ]},
    {"smiles": "C=CCCCCCCN(O)C(=O)/C=C/c1ccc(Cl)cc1Cl", "values": [
      {"measurement": "Ki", "setting": "[1]", "result": 2.84, "unit": "µM"},
      {"measurement": "inhibition", "setting": "[2]", "result": "Tde"}
    ]},
    {"smiles": "C=CN(O)C(=O)/C=C/c1ccc(Cl)cc1Cl", "values": [
      {"measurement": "Ki", "setting": "[1]", "result": "> 32", "unit": "µM"}
    ]}
  ]
}
